Measured values taken from patent US20140228440A1, “1-AMINO-ALKYLCYCLOHEXANE DERIVATIVES FOR THE TREATMENT OF INFLAMMATORY SKIN DISEASES” (MERZ PHARMA GmbH & CO. KGaA, priority 2008, published 2014).

What was measured:
[1] = tested on: Propionibacterium acnes (ATCC 11828); experiment: Quantitative suspension assay (bactericidal activity); assay type: cell-based; conditions: pH 5.5
Experimental: 1.0 ml of the bacterial test suspension (microbial count: 1.5−5.0×10^8 cfu/ml) and 1.0 ml distilled water is added to 8.0 ml of the product test solution. The stopwatch is started. At the end of the exposure time, 0.1 ml of the test mixture is added to 50 ml rinsing liquid (=test neutralization mixture, TNM, 10°). Two dilutions of the TNM are prepared by pipetting […] of TNM to 9.0 ml of tryptone-NaCl (represents a dilution 10^−2 of TNM before filtration) resp. 50 μl of TNM to 9.0 ml of tryptone-NaCl (represents a dilution 10^−3 of TNM before filtration). The TNM (in duplicate) and each of the dilutions are transferred to a membrane filter device fitted with a membrane filter (0.45 μm) and filtered immediately. Subsequently, the filter is washed with 150 ml distilled water. The membranes are transferred to agar plates. After incubation under appropriate conditions, colonies are counted and reported.
Neramexane-mesylate is tested at 4 different concentrations (w/w 0.1%, 0.5%, 2.0%, 5.0%) to assess its bactericidal activity against Propionibacterium acnes (ATCC 11828). In addition to the effect of the concentration of Neramexane, the relevance of the contact time with the bacterias is assessed at 4 different incubation times (5 min, 30 min, 6 h, 24 h).
After the desired incubation time, the complete elimination of the test compound from the assay is ensured by membrane filtration. Bacterial suspensions with a microbial count ranging from 1.5−5.0×10^8 cfu/ml are used. All assays are performed at the skin relevant pH of 5.5.
The read out is reduction of the bacterial number in the assay, expressed as log-reduction. This reduction of the bacterial count is correlated to the ability of a compound to kill the bacteria, thus, corresponding to its MBC value. A >5-fold log reduction is required for a surface-disinfection compound and a >3-fold log reduction for a hand-disinfection compound.

[2] = tested on: Propionibacterium acnes; experiment: Log reduction assay; assay type: cell-based; conditions: 3.125% solution
Experimental: In order to determine the efficacy of Neramexane against a specific microorganism population (i.e., Propionibacterium acnes), a log reduction assay is performed. The organisms are prepared by inoculating the fluid thioglycolate (FTM). The microorganism is then incubated at 35.2±2.5° C. for 24 hours. The microbial suspension is adjusted to approximately 107 to 108 colony forming units (CFU) per mL and labeled as the stock suspension. […] Then […] is transferred into 11 mL of DI water to prepare a 3.125% solution. This solution is then inoculated with the microorganism and tested at time intervals of 30 seconds, 1 minute, and 5 minutes. One milliliter from each dilution is spread plated in duplicate onto tryptic soy agar with 5% sheep blood. The plates are incubated anaerobically at 35.2±2.5° C. for a minimum of 48 hours. The same procedure is repeated for the Phosphate Buffer Saline control. After the incubation period, all plates are counted to determine the number of microorganisms remaining at each time point. The concentration of each microorganism for the control and product is calculated for each interval. The log reduction is calculated to determine the change (reduction or increase) of the microorganism population relative to a starting inoculum. The minimum required bactericidal concentration is defined as a 3 log reduction from the initial inoculum.

## CC1(C)CC(C)(C)CC(C)(N)C1.CS(=O)(=O)O [Neramexane mesylate]
[1]; 0.1%, contact time 5 min
  log-reduction: <1.41
[1]; 0.1%, contact time 30 min
  log-reduction: <1.41
[1]; 0.1%, contact time 6 h
  log-reduction: <1.41
[1]; 0.1%, contact time 24 h
  log-reduction: <1.41
[1]; 0.5%, contact time 5 min
  log-reduction: <1.41
[1]; 0.5%, contact time 30 min
  log-reduction: <1.41
[1]; 0.5%, contact time 6 h
  log-reduction: 2.6
[1]; 2.0%, contact time 5 min
  log-reduction: <1.41
[1]; 2.0%, contact time 6 h
  log-reduction: >5.48
[1]; 2.0%, contact time 24 h
  log-reduction: >5.48
[1]; 5.0%, contact time 5 min
  log-reduction: 4.33
[1]; 5.0%, contact time 30 min
  log-reduction: >5.48
[1]; 5.0%, contact time 6 h
  log-reduction: >5.48
[1]; 5.0%, contact time 24 h
  log-reduction: >5.48
[2]; exposure time 30 sec
  % Reduction: 91.6%
  Concentration of Organism (CFU/mL): 1.8E+04 CFU/mL
  Log Reduction: 1.1
[2]; exposure time 1 min
  % Reduction: 79.0%
  Concentration of Organism (CFU/mL): 4.4E+04 CFU/mL
  Log Reduction: 0.7
[2]; exposure time 5 min
  % Reduction: 100.0%
  Concentration of Organism (CFU/mL): <10 CFU/mL
  Log Reduction: 4.3
